According to publication PMC6199309, “A therapeutic approach to pantothenate kinase associated neurodegeneration” (Nature Communications, 2018):
pIC50: −log10 of the molar value. ≈ marks a conversion by molar mass, not a printed value. Entries after “also recorded” stand apart in the source; their conditions may differ. Where a name gives a salt, the structure may show the parent alone.

Tests used:
Plasma stability [1] = type: in vitro ADME; settings: mouse, read-out: Plasma Stability T1/2
Plasma stability [2] = type: in vitro ADME; settings: rat, read-out: Plasma Stability T1/2 (converted)
Plasma stability [3] = type: in vitro ADME; settings: human, read-out: Plasma Stability T1/2
PAMPA-BBB = type: in vitro ADME; settings: BBB = Blood Brain Barrier, read-out: PAMPA-BBB, Avg Pe
Protein binding [4] = settings: rat
Microsomal stability [5] = settings: mouse, microsomes
Microsomal stability [6] = settings: rat, microsomes
Microsomal stability [7] = settings: human, microsomes
human PANK3 = target: T1, human PANK3 (Homo sapiens, UniProt Q9H999); experiment: PANK activity assay (radiochemical, without acetyl-CoA); type: biochemical
T1 construct: His; made in house
Description: The assay was linear with time and after 10 min at 37 °C the reaction was stopped by the addition of 4 μl of 10% (v/v) acetic acid. […] All the experiments were repeated twice in duplicate and the data were an average ± data range.
The IC50 values for the structure–activity study were calculated by fitting the inhibition data to a one-site model of the Michaelis–Menten equation. […] (GraphPad software) that accounts for the impact of enzyme-inhibitor binding on the free concentration of inhibitor.

Caco2 permeability = type: in vitro ADME; settings: human, Caco-2; read-out: Caco2 Permeability Efflux Ratio (B2A/A2B)
C3A cells = experiment: Intracellular CoA and metabolite levels in C3A cells; type: cell-based, human
Description: HEK293T cells (ATCC, #CRL-3216) were maintained in Dulbecco’s modified Eagle’s medium (DMEM, Biowhittaker/Lonza) supplemented with 10% FCS. Human C3A [HepG2/C3A, derivative of HepG2] cells (ATCC #CRL-10741) were purchased from ATCC® and maintained in Eagle’s minimum Essential medium (ATCC) supplemented with 2 mM glutamine, 10% fetal bovine serum (FCS, Altanta Biologicals), 50 U/ml penicillin and […] streptomycin. Both cell lines were confirmed to be mycoplasma-free. […]. […] After 24 h of treatment (total 48 h after transfection) the cells were washed with PBS and harvested and subjected to either total CoA or acetyl-CoA determinations.
Prior to labeling, cells were seeded at a density of 2–3 × 10^6 in 60 mm-dishes in reconstituted DMEM without added pantothenate and allowed to adhere overnight. The labeling was initiated by replacing the medium with 2 ml of labeling medium containing 0.1% dimethylsulfoxide (DMSO; control) or 10 μM of the compound in 0.1% DMSO. Cells were incubated for 24 h, the labeling medium was removed, and cells were washed with phosphate buffered saline and lysed by sonication in 20 mM Tris-HCl, pH 7.5, 2 mM DTT, 5 mM EDTA and 50 mM NaF. The lysates were fractionated by thin-layer chromatography after removal of the cell debris by centrifugation. The samples were spotted on Silica Gel H plates and resolved with 95% ethanol:28% ammonium hydroxide (4/1, v/v). The distribution of radioactivity on the plate was quantified using a Bioscan Imager (Bioscan, Inc.) together with quantification of the total cellular radioactivity determined by a Liquid Scintillation Analyzer (PerkinElmer Tri-Carb 2910 TR). Triplicate culture dishes were labeled for each group plus a dish for each group for determination of cell counts and viability using a Nucleocounter (New Brunswick Scientific) according to the manufacturer’s directions. The experiments were repeated twice in duplicate and the data represented is an overall average ± SEM.
Cultured cells or frozen tissues were resuspended in 2 ml cold water to which 500 μl of 0.25 M KOH was added, derivatized with monobromobimane (mBBr, Life technologies) and quantified by HPLC[23]. For acetyl-CoA determinations, C3A cells were resuspended in 1 ml water, added to 2 ml of methanol and 1 ml chloroform, and incubated on ice for 15 min. Chloroform 1.5 ml, 1.2 ml water and 30 pmol of [^13C2]acetyl-CoA (Sigma) was added, and centrifuged at 2000×g for 10 min. The top layer was loaded on a 2-(2-pyridyl) ethyl solid phase extraction column which was equilibrated with 1 ml 50% methanol/2% acetic acid. The column was washed twice with 1 ml 50% methanol/2% acetic acid and 1 ml water. CoA and thioesters were eluted twice with 1 ml 95% ethanol containing 50 mM ammonium hydroxide. Samples were resuspended in 90% methanol containing 15 mM ammonium hydroxide.
The mBBr derivatized sample was fractionated by reverse-phase HPLC using a Gemini C18 3 μm column (150 × 4.60 mm) from Phenomenex. The chromatography system was a Waters e2695 separation module with a UV/Vis and fluorescence detector and controlled by Empower 3 software. Solvent A was 50 mM potassium phosphate pH 4.6, and solvent B was 100% acetonitrile. Twenty microliters of sample was injected onto the column, and the flow rate was 0.5 ml/min. The HPLC program was the following: starting solvent mixture of 90% A/10% B, 0–2 min isocratic with 10% B, 2–6 min linear gradient from 10% B to 15% B, 6–18 min concave gradient from 15% B to 40% B, 18–23 min isocratic with 40% B, 23–25 min linear gradient from 40 to 10%, and 25–30 min isocratic with 10% B. The UV/vis detector was set at 393 nm, and the fluorescence detector was set with excitation at 393 nm and emission at 470 nm. […]

HEK293T cells = experiment: Intracellular CoA levels in transfected HEK293T cells; type: cell-based, human; settings: 10 μM, 24 h
Description: Chloroform 1.5 ml, 1.2 ml water and 30 pmol of [^13C2]acetyl-CoA (Sigma) was added, and centrifuged at 2000×g for 10 min. The top layer was loaded on a 2-(2-pyridyl) ethyl solid phase extraction column which was equilibrated with 1 ml 50% methanol/2% acetic acid. The column was washed twice with 1 ml 50% methanol/2% acetic acid and 1 ml water. […] Samples were resuspended in 90% methanol containing 15 mM ammonium hydroxide.

Protein binding [8] = settings: mouse
Protein binding [9] = settings: human
[10] = Tissue pantothenate levels in mice; type: in vivo; settings: C57Bl6/J, mouse, liver; 200 mg/kg pantothenate by oral gavage, 4 h after last of 5 doses; read-out: calculated intracellular pantothenate concentration in liver
Description: Plasma (10 μl) was added to 800 μl methanol and 190 μl water along with 200 pmol (β-alanyl-^13C3^15N)-pantothenate (^13C^15N-Pan, Sigma). Tissue (30–40 mg) was homogenized in 2 ml of 80% methanol, and 500 pmol of ^13C^15N-Pan was added. The samples were incubated at −80 °C for 4 h. Samples were spun at 3500xg for 10 min to pellet debris, and supernatant was transferred to a new tube and dried using a SpeedVac overnight. Samples were resuspended in water + 0.1% formic acid and spun through a Spin-X Centrifuge Tube Filter (0.22 μm Cellulose Acetate, Costar).
Pantothenate was analyzed using a Shimadzu Prominence UFLC attached to a QTrap 4500 equipped with a Turbo V ion source (Sciex). Samples were injected onto an XSelect® HSS C18, 2.5 μm, 2.1 × 150 mm column using a flow rate of 0.2 ml/min. Solvent A was 0.1% formic acid in water, and Solvent B was acetonitrile + 0.1% formic acid. […] The MRM transition for pantothenate was 220.0 / 184.1 m/z and [^13C^15N]pantothenate was 224.0 / 188.1 m/z both with a declustering potential, 35 V and collision energy, 22 V. The system was controlled by the Analyst® software (Sciex) and analyzed with MultiQuant™ 3.0.2 software (Sciex). Intracellular pantothenate was measured as pmoles/mg wet weight.

T1 sequence (Q9H999 whole entry): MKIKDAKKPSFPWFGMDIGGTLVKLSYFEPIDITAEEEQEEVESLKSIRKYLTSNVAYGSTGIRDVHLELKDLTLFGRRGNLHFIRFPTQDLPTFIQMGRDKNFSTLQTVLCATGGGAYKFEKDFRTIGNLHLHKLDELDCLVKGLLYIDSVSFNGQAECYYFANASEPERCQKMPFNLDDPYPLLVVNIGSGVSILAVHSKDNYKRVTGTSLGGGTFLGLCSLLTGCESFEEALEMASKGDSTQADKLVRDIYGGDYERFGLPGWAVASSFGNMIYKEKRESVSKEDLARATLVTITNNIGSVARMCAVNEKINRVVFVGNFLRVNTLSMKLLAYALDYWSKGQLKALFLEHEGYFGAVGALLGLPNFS

| Compound | half-life (Plasma stability [1]) [h] | half-life (Plasma stability [2]) [h] | half-life (Plasma stability [3]) [h] | Papp (PAMPA-BBB) [×10⁻⁶ cm/s] | PAMPA; Avg Pe (PAMPA) | fraction unbound (Protein binding [4]) | solubility (Solubility at pH 7.4) [µM] | half-life (Microsomal stability [5]) [min] | half-life (Microsomal stability [6]) [min] | half-life (Microsomal stability [7]) [min] | pIC50 (human PANK3) | inhibition of PANK3 (in words) (human PANK3; negative control) | efflux ratio (Caco2 permeability) | total intracellular CoA levels in C3A cells (C3A cells; 24 h, increasing concentrations (20 and 50 μM less activating)) | intracellular CoA, PANK3 overexpressing HEK293T cells (HEK293T cells) | fraction unbound (Protein binding [8]) | fraction unbound (Protein binding [9]) | CoA content of C3A cells on varying pantothenate in medium (C3A cells; pantothenate alone, without PZ-2891) | concentration at 4 h [10] [µM] |
| --- | --- | --- | --- | --- | --- | --- | --- | --- | --- | --- | --- | --- | --- | --- | --- | --- | --- | --- | --- |
| CC(C)(C)c1ccc(NC(=O)N2CCN(c3ccc(C#N)cn3)CC2)cc1 [PZ-2789, N-(4-(tert-butyl)phenyl)-4-(5-cyanopyridin-2-yl)piperazine-1-carboxamide] | > 50 | > 50 | > 50 | 303 | 1232 10-6 cm/s | 0.02 | 1.4 (≈ 0.509 µg/mL) | 15.6 | 30.6 | 7.8 | – | – | – | – | – | – | – | – | – |
| CC(C)c1ccc(CC(=O)N2CCN(c3ccc(C#N)cn3)CC2)cc1 [PZ-2863] | – | – | – | – | – | – | 25 (≈ 8.71 µg/mL) | – | – | – | – | – | – | – | – | – | – | – | – |
| CC(C)c1ccc(C(=O)CN2CCN(c3ccc(C#N)nn3)CC2)cc1 [PZ-3067, 6-(4-(2-(4-isopropylphenyl)-2-oxoethyl)piperazin-1-yl)pyridazine-3-carbonitrile] | > 50 | 27 | > 50 | 0.8 | 204 10-6 cm/s | 0.1 | 18 (≈ 6.29 µg/mL) | 30.6 | 13.2 | 9 | < 4.00 | no effect; also recorded: Inactive | 0.5 | did not respond | inactive | 0.04 | 0.04 | – | – |
| CC(C)(CO)[C@@H](O)C(=O)NCCC(=O)O [pantothenate, D-pantothenic acid, hemicalcium salt] | – | – | – | – | – | – | – | – | – | – | – | – | – | – | – | – | – | no effect on CoA content | 24.4 |
